# In patent US8865894B2, “Oxazolidin-2-one compounds and uses thereof” (Novartis AG, priority 2012, dated 2014):
# pIC50: −log10 of the molar value.
# Biological target: T1, human PI3Kdelta p110 catalytic subunit (Rat-1 pBABEpuro Myr-HA-hp110 delta) (Homo sapiens, UniProt O00329)
# T1 construct: Myr (myristoylation signal) (N); HA (N); expressed in transfected cells; host or cells: Rat-1
# Test: Cellular assay PI3Kdelta (p-Akt(S473) SureFire, Rat-1_PI3Kdelta cells)
# Type: cell-based
# Settings: 1 h compound treatment, read-out: Rat1-PI3Kd/ IC50
# Text: AlphaScreen (Amplified Luminescent Proximity Homogeneous Assay, ALPHA, Perkin Elmer) is a non-radioactive bead-based proximity assay technology to study biomolecular interactions in a homogenous microtiter plate format. The brand name SureFire denotes AlphaScreen assays that are adapted to quantify the phosphorylation of endogenous cellular proteins in cell lysates, by using matched antibody pairs, which consist of an anti-phospho-kinase and an anti-kinase antibody. The assay allows characterization of kinase signaling in cells as well as measurement of kinase inhibitor effects. The AlphaScreen technology provides several advantages over standard assay techniques such as ELISA, as it avoids time-consuming washing procedures and reduces plate handling. Furthermore, it is miniaturizable at least to a 384-well format and provides sensitivity down to the femtomolar range, dependent on the affinity of the antibodies included in the individual AlphaScreen SureFire assay kit. High sensitivity is reached by an intrinsic amplification mechanism, which involves production of singlet oxygen molecules. SureFire assay kits are commercially available for specific targets and include pairs of validated antibodies (PerkinElmer). This report describes common procedures applied for AlphaScreen SureFire assays and respective semi-automated steps for routine kinase inhibitor profiling in cell-based assays.
# The Rat-1 cell lines stably overexpressing activated PI3K class I isoforms Rat-1 pBABEpuro Myr-HA-hp110 delta (Rat-1_PI3Kdelta) and Rat-1 pBABEpuro Myr-HA-hp110alpha (Rat-1_PI3Kalpha) and Rat-1 pBABEpuro Myr-HA-hp110 beta (Rat-1_PI3beta) were prepared as described (Maira S M, Stauffer F, Brueggen J, Furet P, Schnell C, Fritsch C, Brachmann S, Chène P, de Pover A, Schoemaker K, Fabbro D, Gabriel D, Simonen M, Murphy L, Finan P, Sellers W, García-Echeverría C (2008), Mol Cancer Ther. 7:1851-63 and Maira S M, Pecchi S, Brueggen J, Huh K, Schnell C, Fritsch C, Nagel T, Wiesmann M, Brachmann S, Dorsch M, Chène P, Schoemaker K, De Pover A, Menezes D, Fabbro D, Sellers W, García-Echeverría C, Voliva C F (2011), Mol. Cancer Ther., accepted). All cell lines were cultivated in complete growth medium (DMEM high glucose, 10% (v/v) fetal bovine serum, 1% (v/v) MEM NEAA, 10 mM HEPES, 2 mM L-glutamine, puromycin (10 μg/mL for Rat-1_PI3Kdelta and Rat-1_PI3Kalpha, 4 ug/mL for Rat-1_PI3beta), 1% (v/v) Pen/Strep) to 90% confluency at 37° C./5% CO2/90% humidity in a humidified CO2 incubator and were split twice a week.
# The following materials were used for p-AKT(S473) detection in Rat-1 cell lysates: Dulbecco's modified Eagle's medium (DMEM) high glucose (Gibco Invitrogen, Basel, Switzerland, Cat. No. 41965), Heat Inactivated Fetal Bovine Serum, Qualified (HI FBS; Gibco Invitrogen, Basel, Switzerland, Lot. No. 16140), MEM non essential amino acids (NEAA; Gibco Invitrogen, Basel, Switzerland, Cat. No. 11140), HEPES (Gibco Invitrogen, Basel, Switzerland, Cat. No. 15630), Penicillin/Streptomycin (Pen/Strep, 100×; Gibco Invitrogen, Basel, Switzerland, Cat. No. 15140-122), L-Glutamine (Gibco Invitrogen, Basel, Switzerland, Cat. No. 25030), Puromycin (Sigma Aldrich, Buchs, Switzerland, Cat. No. P9620), DMSO (MERCK, Dietikon, Switzerland, Cat. No. 8.02912.2500), H2O, MilliQ-H2O unless otherwise stated (MILLIPORE QGARDOOR1, Millipore, Zug, Switzerland), Bovine serum albumine (BSA; Sigma Aldrich, Buchs, Switzerland Cat. No. A8412), SureFire p-Akt 1/2 (Ser473) Assay Kit (PerkinElmer, Schwerzenbach, Switzerland, Cat. No. TGRAS50K).
# The p-Akt(S473) SureFire assay measures the phosphorylation of endogenous cellular Akt 1/2 at Ser473 in cell lysates. Using Rat-1 cells stably expressing myr-HA-tagged versions of the human PI3Kdelta, PI3Kalpha, or PI3Kbeta p110 catalytic subunit isoforms, the assay was developed as a two-plate protocol in a 384-well format.
# T1 sequence (O00329 whole entry): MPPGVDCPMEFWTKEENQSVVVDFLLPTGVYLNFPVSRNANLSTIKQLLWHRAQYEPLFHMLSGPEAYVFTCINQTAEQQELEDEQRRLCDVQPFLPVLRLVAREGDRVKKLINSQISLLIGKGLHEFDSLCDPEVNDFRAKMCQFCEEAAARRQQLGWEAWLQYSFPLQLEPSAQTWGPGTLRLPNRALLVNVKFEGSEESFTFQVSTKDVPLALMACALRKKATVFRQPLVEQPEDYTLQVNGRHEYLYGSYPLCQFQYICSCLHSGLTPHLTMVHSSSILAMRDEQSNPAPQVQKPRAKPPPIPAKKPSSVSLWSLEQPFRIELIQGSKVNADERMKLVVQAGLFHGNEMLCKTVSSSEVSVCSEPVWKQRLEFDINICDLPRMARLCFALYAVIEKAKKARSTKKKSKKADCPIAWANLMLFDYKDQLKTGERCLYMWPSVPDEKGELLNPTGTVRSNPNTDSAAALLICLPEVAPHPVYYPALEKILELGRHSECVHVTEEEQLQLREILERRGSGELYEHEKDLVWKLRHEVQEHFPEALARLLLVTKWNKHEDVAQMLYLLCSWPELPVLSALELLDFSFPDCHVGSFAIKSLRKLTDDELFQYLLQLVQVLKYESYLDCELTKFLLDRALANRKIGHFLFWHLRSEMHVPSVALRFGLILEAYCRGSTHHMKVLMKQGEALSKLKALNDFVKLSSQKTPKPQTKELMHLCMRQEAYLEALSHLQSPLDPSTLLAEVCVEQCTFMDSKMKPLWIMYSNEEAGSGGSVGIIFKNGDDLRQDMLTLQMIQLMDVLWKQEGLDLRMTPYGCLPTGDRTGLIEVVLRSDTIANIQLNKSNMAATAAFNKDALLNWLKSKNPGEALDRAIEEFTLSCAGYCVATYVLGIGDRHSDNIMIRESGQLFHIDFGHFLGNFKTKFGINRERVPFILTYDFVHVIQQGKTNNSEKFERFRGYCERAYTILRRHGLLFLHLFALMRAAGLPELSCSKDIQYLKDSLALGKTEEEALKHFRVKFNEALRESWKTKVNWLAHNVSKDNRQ
# T1 sequence (Q63787 whole entry partner): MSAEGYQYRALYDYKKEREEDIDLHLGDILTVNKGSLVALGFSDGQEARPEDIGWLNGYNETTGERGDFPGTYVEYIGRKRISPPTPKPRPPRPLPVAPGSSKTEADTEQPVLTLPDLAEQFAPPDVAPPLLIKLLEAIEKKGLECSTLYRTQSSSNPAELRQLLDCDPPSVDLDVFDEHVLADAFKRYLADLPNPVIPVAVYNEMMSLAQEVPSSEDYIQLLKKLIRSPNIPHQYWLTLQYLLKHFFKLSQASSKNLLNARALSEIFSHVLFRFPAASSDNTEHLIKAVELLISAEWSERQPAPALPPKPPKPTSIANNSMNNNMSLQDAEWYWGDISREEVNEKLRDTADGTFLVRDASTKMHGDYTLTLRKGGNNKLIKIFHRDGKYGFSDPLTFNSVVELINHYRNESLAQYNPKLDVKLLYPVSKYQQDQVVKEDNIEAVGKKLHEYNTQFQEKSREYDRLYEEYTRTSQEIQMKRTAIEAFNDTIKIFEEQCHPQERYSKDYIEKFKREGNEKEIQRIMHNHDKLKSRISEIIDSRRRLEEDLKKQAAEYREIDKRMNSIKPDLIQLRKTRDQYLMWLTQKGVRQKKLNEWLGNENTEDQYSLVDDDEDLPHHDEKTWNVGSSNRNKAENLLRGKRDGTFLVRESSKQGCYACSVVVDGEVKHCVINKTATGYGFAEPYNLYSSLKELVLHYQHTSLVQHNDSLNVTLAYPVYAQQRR
row,SMILES,pIC50
1,"C[C@H]1C(CC(C)(C)O)OC(=O)N1c1cc(-c2cnc(N)nc2C(F)(F)F)nc(N2CCOCC2)n1 (mixture of isomers) [Example 26, (4S,5R)- and (4S,5S)-3-(2′-amino-2-morpholino-4′-(trifluoromethyl)-[4,5′-bipyrimidin]-6-yl)-5-(2-hydroxy-2-methylpropyl)-4-methyloxazolidin-2-one]",7.96
2,"CC1(CO)COC(=O)N1c1cc(-c2cnc(N)nc2C(F)(F)F)nc(N2CCOCC2)n1 (racemic) [Example 3, 3-(2′-amino-2-morpholino-4′-(trifluoromethyl)-4,5′-bipyrimidin-6-yl)-4-(hydroxymethyl)-4-methyloxazolidin-2-one]",7.14
3,"Nc1ncc(-c2cc(N3C(=O)O[C@@H]4[C@@H](O)CC[C@@H]43)nc(N3CCOCC3)n2)c(C(F)(F)F)n1 (racemic) [Example 22, (3aR*,6R*,6aR*)-3-(2′-Amino-2-morpholino-4′-(trifluoromethyl)-[4,5′-bipyrimidin]-6-yl)-6-hydroxyhexahydro-2H-cyclopenta[d]oxazol-2-one]",7.57
4,"Nc1ncc(-c2cc(N3C(=O)OC4C(O)CCC43)nc(N3CCOCC3)n2)c(C(F)(F)F)n1 (single isomer, unassigned) [Example 22A]",7.57
5,"Nc1ncc(-c2cc(N3C(=O)OC4C(O)CCC43)nc(N3CCOCC3)n2)c(C(F)(F)F)n1 (single isomer, unassigned) [Example 22B]",8.30
6,"C[C@@H](O)C[C@H]1OC(=O)N(c2cc(-c3cnc(N)nc3C(F)(F)F)nc(N3CCOCC3)n2)[C@H]1C (single isomer, unassigned) [Example 24]",8.15
7,"C[C@H](O)CC1OC(=O)N(c2cc(-c3cnc(N)nc3C(F)(F)F)nc(N3CCOCC3)n2)[C@H]1C (single isomer, unassigned) [Example 25]",7.89
8,"C[C@H]1COC(=O)N1c1cc(-c2cnc(N)nc2C(F)(F)F)nc(N2CCOCC2)n1 [Example 1, (S)-3-(2′-Amino-2-morpholin-4-yl-4′-trifluoromethyl-[4,5′]bipyrimidinyl-6-yl)-4-methyl-oxazolidin-2-one]",7.57
9,"CC1(C)OC(=O)N(c2cc(-c3cnc(N)nc3C(F)(F)F)nc(N3CCOCC3)n2)[C@H]1CO [Example 2, (S)-3-(2′-Amino-2-morpholin-4-yl-4′-trifluoromethyl-[4,5′]bipyrimidinyl-6-yl)-4-hydroxymethyl-5,5-dimethyl-oxazolidin-2-one]",7.09
10,"Nc1ncc(-c2cc(N3C(=O)O[C@H]4CCCC[C@@H]43)nc(N3CCOCC3)n2)c(C(F)(F)F)n1 [Example 4, (3aS,7aS)-3-(2′-Amino-2-morpholin-4-yl-4′-trifluoromethyl-[4,5′]bipyrimidinyl-6-yl)-hexahydro-benzooxazol-2-one]",7.89
11,"COC[C@H]1COC(=O)N1c1cc(-c2cnc(N)nc2C(F)(F)F)nc(N2CCOCC2)n1 [Example 5, (S)-3-(2′-Amino-2-morpholin-4-yl-4′-trifluoromethyl-[4,5′]bipyrimidinyl-6-yl)-4-methoxymethyl-oxazolidin-2-one]",7.64
12,C[C@@H]1OC(=O)N(c2cc(-c3cnc(N)nc3C(F)(F)F)nc(N3CCOCC3)n2)[C@H]1CO [Example 6],7.43
13,[2H]C1([2H])OC([2H])([2H])C([2H])([2H])N(c2nc(-c3cnc(N)nc3C(F)(F)F)cc(N3C(=O)O[C@H](C)[C@@H]3CO)n2)C1([2H])[2H] [Example 8],7.27
14,"Nc1ncc(-c2cc(N3C(=O)OC[C@@H]3CCO)nc(N3CCOCC3)n2)c(C(F)(F)F)n1 [Example 9, (S)-3-(2′-Amino-2-morpholin-4-yl-4′-trifluoromethyl-[4,5′]bipyrimidinyl-6-yl)-4-(2-hydroxy-ethyl)-oxazolidin-2-one]",7.11
15,"C[C@H]1OC(=O)N(c2cc(-c3cnc(N)nc3C(F)(F)F)nc(N3CCOC[C@@H]3C)n2)[C@H]1CO [Example 10, (4S,5R)-3-[2′-Amino-2-((S)-3-methyl-morpholin-4-yl)-4′-trifluoromethyl-[4,5′]bipyrimidinyl-6-yl]-4-hydroxymethyl-5-methyl-oxazolidin-2-one]",7.28
16,"Nc1ncc(-c2cc(N3CCOC3=O)nc(N3CCOCC3)n2)c(C(F)(F)F)n1 [Example 11, 3-(2′-Amino-2-morpholin-4-yl-4′-trifluoromethyl-[4,5′]bipyrimidinyl-6-yl)-oxazolidin-2-one, reference compound]",6.86
17,"C[C@H]1OC(=O)N(c2cc(-c3cnc(N)nc3C(F)(F)F)nc(N3CCOCC3)n2)[C@H]1COC=O [Example 12, Formic acid (4S,5R)-3-(2′-amino-2-morpholin-4-yl-4′-trifluoromethyl-[4,5′]bipyrimidinyl-6-yl)-5-methyl-2-oxo-oxazolidin-4-ylmethyl ester]",7.04
18,"C[C@H]1COCCN1c1nc(-c2cnc(N)nc2C(F)(F)F)cc(N2C(=O)OC[C@@H]2C)n1 [Example 13, (S)-3-[2′-Amino-2-((S)-3-methyl-morpholin-4-yl)-4′-trifluoromethyl-[4,5′]bipyrimidinyl-6-yl]-4-methyl-oxazolidin-2-one]",7.38
19,"Nc1ncc(-c2cc(N3C[C@@H](CO)OC3=O)nc(N3CCOCC3)n2)c(C(F)(F)F)n1 [Example 14, (S)-3-(2′-Amino-2-morpholin-4-yl-4′-trifluoromethyl-[4,5′]bipyrimidinyl-6-yl)-5-hydroxymethyl-oxazolidin-2-one]",7.00
20,"C[C@H]1[C@H](CO)OC(=O)N1c1cc(-c2cnc(N)nc2C(F)(F)F)nc(N2CCOCC2)n1 [Example 15, (4S,5R)-3-(2′-Amino-2-morpholin-4-yl-4′-trifluoromethyl-[4,5′]bipyrimidinyl-6-yl)-5-hydroxymethyl-4-methyl-oxazolidin-2-one]",7.28
21,"C[C@H]1CN(c2cc(-c3cnc(N)nc3C(F)(F)F)nc(N3CCOCC3)n2)C(=O)O1 [Example 16, (S)-3-(2′-Amino-2-morpholin-4-yl-4′-trifluoromethyl-[4,5′]bipyrimidinyl-6-yl)-5-methyl-oxazolidin-2-one]",7.06
22,"[2H]C1([2H])OC([2H])([2H])C([2H])([2H])N(c2nc(-c3cnc(N)nc3C(F)(F)F)cc(N3C(=O)OC[C@@H]3C)n2)C1([2H])[2H] [Example 17, (S)-3-(2′-amino-2-D8-morpholino-4′-(trifluoromethyl)-[4,5′-bipyrimidin]-6-yl)-4-methyloxazolidin-2-one]",6.81
23,"C[C@H]1OC(=O)N(c2cc(-c3cnc(N)nc3C(F)(F)F)nc(N3CCOCC3)n2)[C@H]1CO [Example 18, (4S,5R)-3-(2′-Amino-2-morpholin-4-yl-4′-trifluoromethyl-[4,5′]bipyrimidinyl-6-yl)-4-hydroxymethyl-5-methyl-oxazolidin-2-one]",7.55
24,"C[C@H]1[C@@H](CO)OC(=O)N1c1cc(-c2cnc(N)nc2C(F)(F)F)nc(N2CCOCC2)n1 [Example 19, (4S,5S)-3-(2′-Amino-2-morpholin-4-yl-4′-trifluoromethyl-[4,5′]bipyrimidinyl-6-yl)-5-hydroxymethyl-4-methyl-oxazolidin-2-one]",7.47
